Results: PubChem BioAssay AID330 (DTP/NCI, 2004)
Several values for one entry are separate records, joined by “and”; a condition that tells them apart may be missing. Identical values can stand only once. Inconclusive results and toxic doses are left out.

Tested on: P388 leukemia ip, CD2F1 mice, survival T/C
Assay: NCI In Vivo Anticancer Drug Screen. Data for tumor model P388 Leukemia (intraperitoneal) in CD2F1 (CDF1) mice
Details: endpoint: median survival time, higher = longer survival
Outline: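 Mice carrying the transplanted tumor received test compound or vehicle. Survival was recorded in each group, and the value is the treated-group measurement divided by that of the vehicle-treated control group.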

[1] = dose: 50.0 mg/kg/injection, schedule: Q01DX005 (ip), vehicle: saline
[2] = dose: 100.0 mg/kg/injection, schedule: Q01DX005 (ip), vehicle: saline
[3] = dose: 200.0 mg/kg/injection, schedule: Q01DX005 (ip), vehicle: saline
[4] = dose: 60.0 mg/kg/injection, schedule: Q01DX005 (ip), vehicle: saline with Tween-80
[5] = dose: 120.0 mg/kg/injection, schedule: Q01DX005 (ip), vehicle: saline with Tween-80
[6] = dose: 240.0 mg/kg/injection, schedule: Q01DX005 (ip), vehicle: saline with Tween-80
[7] = dose: 50.0 mg/kg/injection, schedule: Q01DX009 (ip), vehicle: saline with Tween-80
[8] = dose: 100.0 mg/kg/injection, schedule: Q01DX009 (ip), vehicle: saline with Tween-80
[9] = dose: 100.0 mg/kg/injection, schedule: Q01DX001 (ip), vehicle: Klucel (hydroxypropylcellulose) (HPC)
[10] = dose: 200.0 mg/kg/injection, schedule: Q01DX001 (ip), vehicle: Klucel (hydroxypropylcellulose) (HPC)
[11] = dose: 400.0 mg/kg/injection, schedule: Q01DX001 (ip), vehicle: Klucel (hydroxypropylcellulose) (HPC)
[12] = dose: 50.0 mg/kg/injection, schedule: Q01DX005 (ip), vehicle: saline with Tween-80
[13] = dose: 100.0 mg/kg/injection, schedule: Q01DX005 (ip), vehicle: saline with Tween-80
[14] = dose: 200.0 mg/kg/injection, schedule: Q01DX005 (ip), vehicle: saline with Tween-80
[15] = dose: 100.0 mg/kg/injection, schedule: Q01DX009 (ip), vehicle: saline
[16] = dose: 200.0 mg/kg/injection, schedule: Q01DX009 (ip), vehicle: saline
[17] = dose: 400.0 mg/kg/injection, schedule: Q01DX009 (ip), vehicle: saline

SMILES: CC(C(=O)O)N(CCC#N)CCC#N (stereo not drawn)
- T/C [1]: 95 % of control
- T/C [2]: 100 % of control
- T/C [3]: 95 % of control

SMILES: C/C(=C\c1ccccc1)c1ccccn1
- T/C [1]: 99 % of control
- T/C [2]: 105 % of control
- T/C [3]: 113 % of control

SMILES: CCCCNC(=O)Oc1ccc(OCc2ccccc2)cc1
- T/C (dose: 100.0 mg/kg/injection, schedule: Q04DX003 (ip), vehicle: saline with Tween-80): 100 % of control
- T/C (dose: 200.0 mg/kg/injection, schedule: Q04DX003 (ip), vehicle: saline with Tween-80): 95 % of control
- T/C (dose: 400.0 mg/kg/injection, schedule: Q04DX003 (ip), vehicle: saline with Tween-80): 90 % of control

SMILES: O=C1CSC(c2c(Cl)cccc2Cl)N1c1nncs1 (stereo not drawn)
- T/C [4]: 111 % of control
- T/C [5]: 102 % of control
- T/C [6]: 98 % of control

SMILES: COc1ccc(OC)c(Cc2cnc3nc(N)nc(N)c3c2C)c1
- T/C (dose: 10.0 mg/kg/injection, schedule: Q01DX005 (ip), vehicle: dextrose): 113 % of control
- T/C (dose: 10.0 mg/kg/injection, schedule: Q01DX005 (ip), vehicle: water): 112 % of control
- T/C (dose: 25.0 mg/kg/injection, schedule: Q04DX003 (ip), vehicle: dextrose): 115 % of control
- T/C (dose: 40.0 mg/kg/injection, schedule: Q01DX005 (ip), vehicle: dextrose): 170 % of control
- T/C (dose: 100.0 mg/kg/injection, schedule: Q04DX003 (ip), vehicle: dextrose): 166 % of control

SMILES: O=C(Cc1n[nH]c(=S)nc1CC(=O)c1ccccc1)c1ccccc1
- T/C [4]: 98 % of control
- T/C [5]: 97 % of control
- T/C [6]: 105 % of control

SMILES: COC1=C/C(=C\N(O)C(C)(C)CO)C=CC1=O
- T/C [7]: 99 % of control
- T/C [8]: 91 % of control
- T/C (dose: 200.0 mg/kg/injection, schedule: Q01DX009 (ip), vehicle: saline with Tween-80): 91 % of control

SMILES: Cn1c(Br)c(/C=N/NC(N)=S)c2ccccc21
- T/C [9]: 108 % of control
- T/C [10]: 100 % of control
- T/C [11]: 102 % of control

SMILES: c1ccc(-c2cnc3nc4[nH]c5ccccc5c4nn23)cc1
- T/C [12]: 98 % of control
- T/C [13]: 92 % of control
- T/C [14]: 98 % of control

SMILES: CCCCCCCCCCCCCC[N+]1([O-])CCCCCC1
- T/C (dose: 50.0 mg/kg/injection, schedule: Q01DX009 (ip), vehicle: saline): 90 % of control

SMILES: O=c1[nH]ncc(=S)[nH]1
- T/C (dose: 25.0 mg/kg/injection, schedule: Q01DX009 (ip), vehicle: suspension in saline): 90 % of control
- T/C (dose: 50.0 mg/kg/injection, schedule: Q01DX009 (ip), vehicle: suspension in saline): 103 % of control
- T/C (dose: 100.0 mg/kg/injection, schedule: Q01DX009 (ip), vehicle: suspension in saline): 87 % of control

SMILES: CCOC(=O)c1ccc(NN=NCCOC)cc1
- T/C (dose: 12.5 mg/kg/injection, schedule: Q01DX009 (ip), vehicle: distilled water + Tween-80): 102 % of control
- T/C (dose: 25.0 mg/kg/injection, schedule: Q01DX009 (ip), vehicle: distilled water + Tween-80): 101 % of control and 105 % of control
- T/C (dose: 50.0 mg/kg/injection, schedule: Q01DX009 (ip), vehicle: distilled water + Tween-80): 122 % of control and 123 % of control

SMILES: NNC(=O)CNc1ccccc1Br
- T/C (dose: 60.0 mg/kg/injection, schedule: Q01DX005 (ip), vehicle: Klucel (hydroxypropylcellulose) (HPC)): 97 % of control
- T/C (dose: 120.0 mg/kg/injection, schedule: Q01DX005 (ip), vehicle: Klucel (hydroxypropylcellulose) (HPC)): 98 % of control

SMILES: O=S1(=O)C(CCCCC2=Cc3ccccc3S2(=O)=O)=Cc2ccccc21
- T/C [12]: 94 % of control
- T/C [13]: 100 % of control

SMILES: O=C1Nc2ccccc2/C1=N\N=c1/scc(-c2ccccc2)n1-c1ccccc1
- T/C [4]: 101 % of control and 89 % of control
- T/C [5]: 100 % of control
- T/C [6]: 101 % of control and 97 % of control

SMILES: Cc1ccc(C(=O)/C(N)=C\c2c[nH]c3ccccc23)cc1
- T/C (dose: 100.0 mg/kg/injection, schedule: Q01DX001 (ip), vehicle: saline with Tween-80): 104 % of control
- T/C (dose: 200.0 mg/kg/injection, schedule: Q01DX001 (ip), vehicle: saline with Tween-80): 100 % of control
- T/C (dose: 400.0 mg/kg/injection, schedule: Q01DX001 (ip), vehicle: saline with Tween-80): 98 % of control

SMILES: CC(C)(F)C(N)C(=O)O (stereo not drawn)
- T/C (dose: 60.0 mg/kg/injection, schedule: Q01DX005 (ip), vehicle: saline): 101 % of control
- T/C (dose: 120.0 mg/kg/injection, schedule: Q01DX005 (ip), vehicle: saline): 103 % of control
- T/C (dose: 240.0 mg/kg/injection, schedule: Q01DX005 (ip), vehicle: saline): 100 % of control

SMILES: S=C(S)C1=C(NCCCCCCNC2=C(C(=S)S)CCC2)CCC1
- T/C [9]: 100 % of control
- T/C [10]: 94 % of control
- T/C [11]: 100 % of control

SMILES: O=S(=O)(c1ccccc1)N1CCN(S(=O)(=O)c2ccccc2)COC1
- T/C [12]: 103 % of control
- T/C [13]: 101 % of control
- T/C [14]: 102 % of control

SMILES: c1ccc2c(c1)oc1cc3c(cc12)ncc1cccn13
- T/C (dose: 1.56 mg/kg/injection, schedule: Q01DX005 (ip), vehicle: saline with Tween-80): 103 % of control
- T/C (dose: 3.12 mg/kg/injection, schedule: Q01DX005 (ip), vehicle: saline with Tween-80): 100 % of control
- T/C (dose: 6.25 mg/kg/injection, schedule: Q01DX005 (ip), vehicle: saline with Tween-80): 97 % of control
- T/C (dose: 12.5 mg/kg/injection, schedule: Q01DX005 (ip), vehicle: saline with Tween-80): 90 % of control

SMILES: Cc1nc([Se]c2nc(C)n3ccncc23)c2cnccn12
- T/C (dose: 37.5 mg/kg/injection, schedule: Q01DX001 (ip), vehicle: saline with Tween-80): 95 % of control
- T/C (dose: 75.0 mg/kg/injection, schedule: Q01DX001 (ip), vehicle: saline with Tween-80): 100 % of control
- T/C (dose: 150.0 mg/kg/injection, schedule: Q01DX001 (ip), vehicle: saline with Tween-80): 100 % of control

SMILES: Cn1c(=O)c2nc(-c3ccccc3)c(-c3ccccc3)nc2n(C)c1=O
- T/C (dose: 12.5 mg/kg/injection, schedule: Q01DX009 (ip), vehicle: saline with Tween-80): 96 % of control
- T/C (dose: 25.0 mg/kg/injection, schedule: Q01DX009 (ip), vehicle: saline with Tween-80): 96 % of control
- T/C [7]: 107 % of control
- T/C [8]: 107 % of control

SMILES: CCOC(=O)CCC(NC(=O)OCCNCCCl)C(=O)OCC (stereo not drawn)
- T/C [15]: 86 % of control
- T/C [16]: 86 % of control
- T/C [17]: 95 % of control

SMILES: Clc1ccc(CN2Cc3ccc4cccnc4c3OC2c2ccccn2)cc1Cl (stereo not drawn)
- T/C (dose: 50.0 mg/kg/injection, schedule: Q01DX009 (ip), vehicle: Klucel (hydroxypropylcellulose) (HPC)): 100 % of control
- T/C (dose: 100.0 mg/kg/injection, schedule: Q01DX009 (ip), vehicle: Klucel (hydroxypropylcellulose) (HPC)): 101 % of control
- T/C (dose: 200.0 mg/kg/injection, schedule: Q01DX009 (ip), vehicle: Klucel (hydroxypropylcellulose) (HPC)): 101 % of control

SMILES: Cc1cn(CCCCCCOc2c3occc3cc3ccc(=O)oc23)c(=O)[nH]c1=O
- T/C (dose: 50.0 mg/kg/injection, schedule: Q01DX005 (ip), vehicle: Klucel (hydroxypropylcellulose) (HPC)): 92 % of control
- T/C (dose: 50.0 mg/kg/injection, schedule: Q04DX002 (ip), vehicle: Klucel (hydroxypropylcellulose) (HPC)): 98 % of control
- T/C (dose: 100.0 mg/kg/injection, schedule: Q04DX002 (ip), vehicle: Klucel (hydroxypropylcellulose) (HPC)): 104 % of control
- T/C (dose: 200.0 mg/kg/injection, schedule: Q01DX005 (ip), vehicle: Klucel (hydroxypropylcellulose) (HPC)): 88 % of control
- T/C (dose: 200.0 mg/kg/injection, schedule: Q04DX002 (ip), vehicle: Klucel (hydroxypropylcellulose) (HPC)): 96 % of control

SMILES: CC1CCCC(CC2CCCC[N-]2)[N-]1.CC1CCCC(CC2CCCC[N-]2)[N-]1.[Ni+2].[O-][Cl+3]([O-])([O-])O (stereo not drawn)
- T/C (dose: 25.0 mg/kg/injection, schedule: Q01DX001 (ip), vehicle: saline): 95 % of control
- T/C (dose: 50.0 mg/kg/injection, schedule: Q01DX001 (ip), vehicle: saline): 94 % of control
- T/C (dose: 100.0 mg/kg/injection, schedule: Q01DX001 (ip), vehicle: saline): 108 % of control and 95 % of control

SMILES: CC(C)COC1OCCCC1C(OCC(C)C)C(C)C (stereo not drawn)
- T/C [15]: 108 % of control
- T/C [16]: 113 % of control
- T/C [17]: 99 % of control
